Counter-ions that a name gives are not always drawn.
Assays:
Format in all cases: physicochemical
[1] = Deliquescence on standing at 60% RH and 25° C.; settings: left in an environment of 60% RH and 25° C.; initially white powder
Protocol: In reference to the description on page 56 in Patent Literature 1 (International Publication No. WO2017/135472), the compound 10-BoC was deprotected. Specifically, the compound 10-BoC was dissolved in ethyl acetate and the reaction liquid was cooled to 5° C. After that, a hydrochloric acid/ethyl acetate solution was added dropwise thereto, followed by stirring at 20° C. for 16 hours. After that, the solid was filtered out and dried under reduced pressure to obtain a compound 16-HCl (a hydrochloric acid salt of the compound 16). The obtained compound was initially white powder, but when left in an environment of 60% RH and 25° C., was completely deliquesced within 24 hours.

[2] = Measurement of moisture absorption (automatic gas and vapor adsorption analyzer); settings: BELSORP Aqua3 automatic gas and vapor adsorption analyzer
Protocol: Regarding the crystals B and C, the moisture absorption was measured by using an automatic gas and vapor adsorption analyzer (BELSORP Aqua3 manufactured by MicrotracBEL Corp.)

[3] = Measurement of solubility at pH 6.9 (saturated solution, HPLC); settings: second dissolution test solution (pH 6.9), shaken at 20° C. for 24 hours, filtrate determined by HPLC
Protocol: Specifically, the crystal B can achieve a solubility at pH 6.9 of 50 μg/ml or more. Here, the solubility at pH 6.9 is measured by HPLC analysis. Specifically, the solubility at pH 6.9 can be measured in the method described below in Examples.
Regarding the crystals B and C, the solubility at pH 6.9 was measured. Specifically, a sample was excessively added to a second dissolution test solution (pH 6.9) (manufactured by Kanto Chemical Co., Inc.), and the mixture was shaken at 20° C. for 24 hours to produce a saturated solution. After the undissolved sample was removed with a filter, the amount of the compound in the filtrate was determined by HPLC, and the solubility […] was calculated.

| time until completely deliquesced [1] [h] | moisture absorption (at maximum) [2] [%] | solubility at pH 6.9 [3] [μg/ml] | Compound |
| --- | --- | --- | --- |
| ≤ 24 |  |  | Cc1cc(=O)n(-c2ccc(C[C@H](N)C(=O)OCC(C)C)cn2)c(=O)n1C [compound 16-HCl] |
|  | ≤ 1.35 | 150 | Cc1cc(=O)n(-c2ccc(C[C@H](NC(=O)c3cc(F)c(NS(=O)(=O)c4ccc(NC(=O)C(C)(C)C)cc4)cc3F)C(=O)OCC(C)C)cn2)c(=O)n1C [crystal B, isobutyl(S)-2-(2,5-difluoro-4-((4-pivalamidophenyl)sulfonamido)benzamide)-3-(6-(3,4-dimethyl-2,6-dioxo-3,6-dihydropyrimidin-1(2H)-yl)pyridin-3-yl)propanoate] |
|  | ≤ 0.24 | 25.0 | Cc1cc(=O)n(-c2ccc(C[C@H](NC(=O)c3cc(F)c(NS(=O)(=O)c4ccc(NC(=O)C(C)(C)C)cc4)cc3F)C(=O)OCC(C)C)cn2)c(=O)n1C [crystal C, isobutyl(S)-2-(2,5-difluoro-4-((4-pivalamidophenyl)sulfonamido)benzamide)-3-(6-(3,4-dimethyl-2,6-dioxo-3,6-dihydropyrimidin-1(2H)-yl)pyridin-3-yl)propanoate] |

From patent US20240262805A1, “METHOD FOR PRODUCING COMPOUND OR PHARMACEUTICALLY ACCEPTABLE SALT THEREOF” (EA PHARMA CO., LTD., priority 2021, published 2024)
